Test results as given in patent US20210371351A1, “MIXTURES COMPRISING AT LEAST TWO DIFFERENT NITRIFICATION INHIBITORS SELECTED FROM 2-(3,4-DIMETHYL-1H-PYRAZOL-1-YL)SUCCINIC ACID (DMPSA), 3,4-DIMETHYL PYRAZOLIUM GLYCOLATE (DMPG) AND OTHER COMPOUNDS” (BASF SE, priority 2017, published 2021).

System: nitrification
Assay: Example 5: soil incubation in bottles with ammonium sulfate, DMPSA, DCD or mixtures, 5 to 15° C., 0 up to 56 days; recovery NH4 (RE/RC), net recovery NH4 (NE/NC), inhibition of NO3 formation (IE/IC, Böhland; Colby)
Parameters: unit not given here
Procedure: 100 g soil is filled into 500 ml plastic bottles (e.g. soil sampled from the field) and is moistened to 50% water holding capacity. The soil is incubated at 20° C. for two weeks to activate the microbial biomass. 1 ml test solution, containing the compositions and mixtures of the invention in the appropriate concentration, or DMSO and 5 to 10 mg nitrogen in the form of ammoniumsulfate-N is added to the soil and everything mixed well. Bottles are capped but loosely to allow air exchange. The bottles are then incubated at 5 to 15° C. for 0 up to 56 days.
For analysis, 300 ml of a 1% K2SO4-solution is added to the bottle containing the soil and shaken for 2 hrs in a horizontal shaker at 150 rpm. Then the whole solution is filtered through a Macherey-Nagel Filter MN 807′/. Ammonium and nitrate content is then analyzed in the filtrate in an autoanalyzer at 550 nm (Merck, AA11).
The Böhland equation is described in Böhland, H., et al. (1973) “Mittel zur Hemmung bzw. Regelung der Nitrifikation von Ammoniumstickstoff in Kulturböden”. DDR-Wirtschaftspatent (Economic patent of the German Democratic Republic) C 05c 169 727. Cited by: Peschke, H. (1985) “Zur Bewertung der inhibierenden Wirkung von Nitrifiziden im Boden”, Zbl. Mikrobiol. 140, pp. 583-588.

## 2-(3,4-dimethyl-1H-pyrazol-1-yl)succinic acid and/or 2-(4,5-dimethyl-1H-pyrazol-1-yl)succinic acid [DMPSA]
IT5° C., DAT10, % a.i.: DMPSA 0.5, DCD 1, DMPSA + DCD 0.5 + 1 (1:2)
  IE inhibition of NO3 formation: 18
IT5° C., DAT10, % a.i.: DMPSA 0.5, DCD 3, DMPSA + DCD 0.5 + 3 (1:6)
  IE inhibition of NO3 formation: 18
IT5° C., DAT20, % a.i.: DMPSA 0.5, DCD 1, DMPSA + DCD 0.5 + 1 (1:2)
  IE inhibition of NO3 formation: 20
IT5° C., DAT20, % a.i.: DMPSA 0.5, DCD 3, DMPSA + DCD 0.5 + 3 (1:6)
  IE inhibition of NO3 formation: 20
IT5° C., DAT28, % a.i. DMPSA 0.25, DCD 1
  IE (inhibition of NO3 formation, Böhland): 77
IT5° C., DAT28, % a.i. DMPSA 0.25, DCD 3
  IE (inhibition of NO3 formation, Böhland): 77
IT5° C., DAT28, % a.i. DMPSA 0.30, DCD 0.05
  IE (inhibition of NO3 formation, Böhland): 42
IT5° C., DAT28, % a.i. DMPSA 0.50, DCD 0.08
  IE (inhibition of NO3 formation, Böhland): 41
IT5° C., DAT28, % a.i.: DMPSA 0.50, DCD 0.0125, DMPSA + DCD 0.50 + 0.0125 (40:1)
  IE inhibition of NO3 formation: 44
IT5° C., DAT28, % a.i.: DMPSA 0.50, DCD 0.0143, DMPSA + DCD 0.50 + 0.0143 (35:1)
  IE inhibition of NO3 formation: 44
IT5° C., DAT28, % a.i.: DMPSA 0.50, DCD 0.0167, DMPSA + DCD 0.50 + 0.0167 (30:1)
  IE inhibition of NO3 formation: 44
IT5° C., DAT30, % a.i.: DMPSA 0.5, DCD 1, DMPSA + DCD 0.5 + 1 (1:2)
  IE inhibition of NO3 formation: 66
IT5° C., DAT30, % a.i.: DMPSA 0.5, DCD 3, DMPSA + DCD 0.5 + 3 (1:6)
  IE inhibition of NO3 formation: 66
IT5° C., DAT42, % a.i. DMPSA 0.25, DCD 1
  IE (inhibition of NO3 formation, Böhland): 75
IT5° C., DAT42, % a.i. DMPSA 0.25, DCD 3
  IE (inhibition of NO3 formation, Böhland): 75
IT5° C., DAT42, % a.i. DMPSA 0.30, DCD 0.05
  IE (inhibition of NO3 formation, Böhland): 55
IT5° C., DAT42, % a.i. DMPSA 0.50, DCD 0.08
  IE (inhibition of NO3 formation, Böhland): 53
IT5° C., DAT56, % a.i. DMPSA 0.25, DCD 1
  IE (inhibition of NO3 formation, Böhland): 83
IT5° C., DAT56, % a.i. DMPSA 0.25, DCD 3
  IE (inhibition of NO3 formation, Böhland): 83
IT5° C., DAT56, % a.i. DMPSA 0.30, DCD 0.05
  IE (inhibition of NO3 formation, Böhland): 63
IT10° C., DAT10, % a.i.: DMPSA 0.5, DCD 1, DMPSA + DCD 0.5 + 1 (1:2)
  IE inhibition of NO3 formation: 70
IT10° C., DAT10, % a.i.: DMPSA 0.5, DCD 3, DMPSA + DCD 0.5 + 3 (1:6)
  IE inhibition of NO3 formation: 70
IT10° C., DAT20, % a.i.: DMPSA 0.5, DCD 1, DMPSA + DCD 0.5 + 1 (1:2)
  IE inhibition of NO3 formation: 7
IT10° C., DAT20, % a.i.: DMPSA 0.5, DCD 3, DMPSA + DCD 0.5 + 3 (1:6)
  IE inhibition of NO3 formation: 7
IT10° C., DAT28, % a.i. DMPSA 0.25, DCD 1
  IE (inhibition of NO3 formation, Böhland): 59
IT10° C., DAT28, % a.i. DMPSA 0.25, DCD 3
  IE (inhibition of NO3 formation, Böhland): 59
IT10° C., DAT28, % a.i. DMPSA 0.30, DCD 0.05
  IE (inhibition of NO3 formation, Böhland): 51
IT10° C., DAT28, % a.i. DMPSA 0.50, DCD 0.08
  IE (inhibition of NO3 formation, Böhland): 46
IT10° C., DAT28, % a.i.: DMPSA 0.50, DCD 0.0125, DMPSA + DCD 0.50 + 0.0125 (40:1)
  IE inhibition of NO3 formation: 62
IT10° C., DAT28, % a.i.: DMPSA 0.50, DCD 0.0143, DMPSA + DCD 0.50 + 0.0143 (35:1)
  IE inhibition of NO3 formation: 62
IT10° C., DAT28, % a.i.: DMPSA 0.50, DCD 0.0167, DMPSA + DCD 0.50 + 0.0167 (30:1)
  IE inhibition of NO3 formation: 62
IT10° C., DAT30, % a.i.: DMPSA 0.5, DCD 1, DMPSA + DCD 0.5 + 1 (1:2)
  IE inhibition of NO3 formation: 79
IT10° C., DAT30, % a.i.: DMPSA 0.5, DCD 3, DMPSA + DCD 0.5 + 3 (1:6)
  IE inhibition of NO3 formation: 79
IT10° C., DAT42, % a.i. DMPSA 0.25, DCD 1
  IE (inhibition of NO3 formation, Böhland): 66
IT10° C., DAT42, % a.i. DMPSA 0.25, DCD 3
  IE (inhibition of NO3 formation, Böhland): 66
IT10° C., DAT42, % a.i. DMPSA 0.30, DCD 0.05
  IE (inhibition of NO3 formation, Böhland): 46
